This note sets out measurements from patent publication US9452997B2, “Piperidine and piperazine derivatives as autotaxin inhibitors” (Merck Patent GmbH, priority 2009, dated 2016).

This assay deals with T1, Recombinant autotaxin (Homo sapiens, UniProt Q13822).
T1 construct: made in house; host or cells: Hi5 insect cells (baculovirus)
The experiment in a line: Autotaxin assay (Amplex Red, LPC substrate). It counts as biochemical. Particulars: recombinant autotaxin, LPC substrate, Amplex Red detection; values given as upper bounds. The method, then: Autotaxin activity is measured indirectly by means of Amplex Red Reagent. In this course, Amplex Red is measured as fluorogenic indicator for generated H2O2. Autotaxin converts substrate lysophosphatidylcholine (LPC) to phosphocholine and lysophosphatidylic acid (LPA). After the conversion phosphocholine is reacted with alkaline phosphatase to obtain inorganic phosphate and choline. During the next step choline is oxidized with choline oxidase to yield betaine, whereby H2O2 is generated. H2O2 reacts with Amplex Red Reagent in the presence of peroxidase (Horseradish peroxidase) in an 1:1 stochiometry and yields highly fluorescent resorufin. The generated fluorescence is measured in a reaction-dependent kinetic mode in order to enable subtraction of fluorescence signals of possible other fluorescent compounds that are not part of the reaction from total measured fluorescence.
1.5 μl of a standard solution or of the compounds of the invention are dissolved in 20 mM Hepes pH 7.2 with maximally 7.7% DMSO in individual concentrations. The resulting solution is pre-incubated together with 10 μl (16 ng) of highly purified recombinant autotaxin in a black 384-hole microtiter plate for 30 min at 22° C.
Thereafter, the reaction is started through the addition of 5 μL-a-lysophosphatidyl-choline (LPC), whereby the final concentration of LPC is 75 μM. The mixture is incubated for 90 min. at 37° C. After the incubation Amplex Red Reagent, peroxidase (Horseradish peroxidase) and choline oxidase are added. The fluorescence is immediately measured at a wavelength of 612 nm with an excitation wavelength of 485 nm in a “Tecan Ultra multimode” fluorescence reader. The activity of autotaxin is indirectly calculated via the amount of detected generated H2O2.
For IC50 analysis, ten serial 1:3 dilutions starting at 30 μM for each compound were run in duplicates.
IC50 values were calculated on normalized data. For normalization, control wells were added to each assay plate and the signal of uninhibited control wells was set to 100%, whereas the signal inhibited by 500 μM C14 LPA, (Avanti Polar Lipids, Cat#857120P) was set to 0%. Curves were fitted and IC50 values calculated by the following model using proprietory analysis software: Y=Bottom+(100−Bottom)/(1+10^((Log IC50−X)*HillSlope)) Where X is the logarithm of concentration. Y is the response; Y starts at Bottom and goes to Top with a sigmoid shape. Material
Microtiter plate: PS-Microplate, 384-hole, small volume, black Corning, Cat#3677
Protein: Recombinant autotaxin (baculoviral Hi5 expression)
Substrate: L-a-lysophosphatidyl choline (chicken egg); Avanti Polar Lipids #830071P
Standard: C14 LPA, Avanti Polar Lipids, Cat#857120P
Detection Reagent: Amplex Red Reagent; Invitrogen #A12222; dissolved in 1.923 ml of DMSO peroxidase Type VI-A (horseradish), Sigma #P6782; dissolved in 7.45 ml of test buffer, Choline Oxidase; Sigma #C5896; dissolved in 2.47 ml test buffer
Detection Reagent Mix: 1:100 dilution of Amplex Red Regent in test buffer
Test buffer: 200 mM Tris-HCl, Merck, Cat #1.08219, pH 7.9; 0.1% BSA, lipid free, Roche Cat#775835
For orientation: IC50 means the concentration needed to halve the response being measured. `O=C(NC1CCC(N2CCN(C(=O)OCc3cc(Cl)cc(C(F)(F)F)c3)CC2)CC1)c1ccc2[nH]nnc2c1` (centres unmarked) [Compound 187, 4-{4-[(1H-Benzotriazole-5-carbonyl)-amino]-cyclohexyl}-piperazine-1-carboxylic acid 3-chloro-5-trifluoromethyl-benzyl ester]: the IC50 was below 1 µM.

Take `O=C(Cc1ccc2[nH]nnc2c1)N1CCC(N2CCN(C(=O)Nc3cc(Cl)cc(Cl)c3)CC2)CC1` [Compound 140, 4-[1-(2-1H-Benzotriazol-5-yl-acetyl)-piperidin-4-yl]-piperazine-1-carboxylic acid (3,5-dichloro-phenyl)-amide]: the IC50 was below 10 µM.

For `C[C@H](OC(=O)N1CCN(C2CCN(C(=O)c3ccc4[nH]nnc4c3)CC2)CC1)c1cc(C(F)(F)F)cc(C(F)(F)F)c1` [Compound 171, 4-[1-(1H-Benzotriazole-5-carbonyl)-piperidin-4-yl]-piperazine-1-carboxylic acid (S)-1-(3,5-bis-trifluoromethyl-phenyl)-ethyl ester], the IC50 was below 10 µM.

For the molecule `O=C(Cc1ccc(Cl)cc1)C(=O)N1CCN(C2CCN(C(=O)c3ccc4[nH]nnc4c3)CC2)CC1` [Compound 123, 1-{4-[1-(1H-Benzotriazole-5-carbonyl)-piperidin-4-yl]-piperazin-1-yl}-3-(4-chloro-phenyl)-propane-1,2-dione], the IC50 was below 10 µM.

`O=C(CCc1ccc(C(F)(F)F)cc1)N1CCC(N2CCN(C(=O)c3cccc(-c4ncc[nH]4)c3)CC2)CC1` [Compound 60, 1-(4-{4-[3-(1H-Imidazol-2-yl)-benzoyl]-piperazin-1-yl}-piperidin-1-yl)-3-(4-trifluoromethyl-phenyl)-propan-1-one]: the IC50 was below 30 µM.

As to `O=C(NC1CCN(C2CCN(C(=O)OCc3ccc(Cl)cc3)CC2)C1)c1ccc2[nH]nnc2c1` (centres unmarked) [Compound 7, 4-{3-[(1H-Benzotriazole-5-carbonyl)-amino]-pyrrolidin-1-yl}-piperidine-1-carboxylic acid 4-chloro-benzyl ester], the IC50 was below 10 µM.

Consider `Cc1oc(-c2ccccc2)cc1COC(=O)N1CCN(C2CCN(C(=O)c3ccc4[nH]nnc4c3)CC2)CC1` [Compound 173, 4-[1-(1H-Benzotriazole-5-carbonyl)-piperidin-4-yl]-piperazine-1-carboxylic acid 2-methyl-5-phenyl-furan-3-ylmethyl ester], for which the IC50 was below 10 µM.

`CC(OC(=O)N1CCN(C2CCN(C(=O)c3ccc4[nH]nnc4c3)CC2)CC1)c1ccc(C(F)(F)F)cc1` (centres unmarked) [Compound 132, 4-[1-(1H-Benzotriazole-5-carbonyl)-piperidin-4-yl]-piperazine-1-carboxylic acid 1-(4-trifluoromethyl-phenyl)-ethyl ester]: the IC50 was below 10 µM.

Consider `O=C(OC1(c2cc(C(F)(F)F)cc(C(F)(F)F)c2)CC1)N1CCN(C2CCN(C(=O)c3ccc4[nH]nnc4c3)CC2)CC1` [Compound 178, 4-[1-(1H-Benzotriazole-5-carbonyl)-piperidin-4-yl]-piperazine-1-carboxylic acid 1-(3,5-bis-trifluoromethyl-phenyl)-cyclopropyl ester], for which the IC50 was below 1 µM.

Take `O=C(CCc1cc(Cl)c(F)c(Cl)c1)N1CCC(N2CCN(C(=O)c3ccc4[nH]nnc4c3)CC2)CC1` [Compound 133, 1-{4-[4-(1H-Benzotriazole-5-carbonyl)-piperazin-1-yl]-piperidin-1-yl}-3-(3,5-dichloro-4-fluoro-phenyl)-propan-1-one]: the IC50 is below 10 µM.

As to `O=C(NC1CCC(N2CCN(C(=O)OCc3ccc(SC(F)(F)F)cc3)CC2)CC1)c1ccc2[nH]nnc2c1` (centres unmarked) [Compound 188, 4-{4-[(1H-Benzotriazole-5-carbonyl)-amino]-cyclohexyl}-piperazine-1-carboxylic acid 4-trifluoromethylsulfanyl-benzyl ester], the IC50 is below 10 µM.

As to `O=C(OCc1cc(F)c(F)c(C(F)(F)F)c1)N1CCN(C2CCN(C(=O)c3ccc4[nH]nnc4c3)CC2)CC1` [Compound 165, 4-[1-(1H-Benzotriazole-5-carbonyl)-piperidin-4-yl]-piperazine-1-carboxylic acid 3,4-difluoro-5-trifluoromethyl-benzyl ester], the IC50 was below 1 µM.

As for `O=C(OCc1ccc(C(F)(F)F)cc1)N1CCC(N2CCC(c3ccc4[nH]c(=O)oc4c3)=N2)CC1` [Compound 107, 4-[3-(2-Oxo-2,3-dihydro-benzooxazol-6-yl)-4,5-dihydro-pyrazol-1-yl]-piperidine-1-carboxylic acid 4-trifluoromethyl-benzyl ester], the IC50 is below 10 µM.

For `O=C(OCc1cc(-c2ccsc2)cs1)N1CCN(C2CCN(C(=O)c3ccc4[nH]nnc4c3)CC2)CC1` [Compound 135, 4-[1-(1H-Benzotriazole-5-carbonyl)-piperidin-4-yl]-piperazine-1-carboxylic acid [3,3′]bithiophenyl-5-ylmethyl ester], the IC50 was below 1 µM.

Regarding `O=C(OCc1cc(C(F)(F)F)cc(C(F)(F)F)c1)N1CCN(C2CCN(C(=O)c3ccc4[nH]c(=S)[nH]c4c3)CC2)CC1` [Compound 161, 4-[1-(2-Thioxo-2,3-dihydro-1H-benzoimidazole-5-carbonyl)-piperidin-4-yl]-piperazine-1-carboxylic acid 3,5-bis-trifluoromethyl-benzyl ester], the IC50 is below 1 µM.

On to `N[C@@H](Cc1c[nH]cn1)C(=O)N1CCN(C2CCN(C(=O)OCc3ccc(C(F)(F)F)cc3)CC2)CC1` [Compound 89, 4-{4-[(S)-2-Amino-3-(1H-imidazol-4-yl)-propionyl]-piperazin-1-yl}-piperidine-1-carboxylic acid 4-trifluoromethyl-benzyl ester], for which the IC50 is below 30 µM.

`O=C(OCc1cn(-c2ccc(Cl)cc2)nn1)N1CCN(C2CCN(C(=O)c3ccc4[nH]nnc4c3)CC2)CC1` [Compound 131, 4-[1-(1H-Benzotriazole-5-carbonyl)-piperidin-4-yl]-piperazine-1-carboxylic acid 1-(4-chloro-phenyl)-1H-[1,2,3]triazol-4-ylmethyl ester]: the IC50 was below 30 µM.

Consider `COc1c(C)cc(COC(=O)N2CCN(C3CCN(C(=O)c4ccc5[nH]nnc5c4)CC3)CC2)cc1C` [Compound 120, 4-[1-(1H-Benzotriazole-5-carbonyl)-piperidin-4-yl]-piperazine-1-carboxylic acid 4-methoxy-3,5-dimethyl-benzyl ester], for which the IC50 is below 10 µM.

Turning to `O=C(OCc1ccc(OC(F)(F)F)c(F)c1)N1CCN(C2CCN(C(=O)c3ccc4[nH]nnc4c3)CC2)CC1` [Compound 118, 4-[1-(1H-Benzotriazole-5-carbonyl)-piperidin-4-yl]-piperazine-1-carboxylic acid 3-fluoro-4-trifluoromethoxy-benzyl ester], the IC50 was below 1 µM.

Turning to `O=C(OCc1cc(Cl)cc(Cl)c1)N1CCC2(CC1)CCN(C(=O)c1ccc3[nH]nnc3c1)CC2` [Compound 29, 9-(1H-Benzotriazole-5-carbonyl)-3,9-diaza-spiro[5.5]undecane-3-carboxylic acid 3,5-dichloro-benzyl ester], the IC50 is below 30 µM.

Consider `O=C(c1ccc2[nH]nnc2c1)N1CCC(N2CCN(C(=O)C3CC3c3ccc(Cl)cc3)CC2)CC1` (centres unmarked) [Compound 179, (1H-Benzoriazol-5-yl)-(4-{4-[2-(4-chloro-phenyl)-cyclopropanecarbonyl]-piperazin-1-yl}-piperidin-1-yl)-methanone], for which the IC50 was below 10 µM.

With `O=C(CCc1cc(Cl)c(F)c(Cl)c1)N1CCN(C2CCN(C(=O)c3ccc4[nH]nnc4c3)CC2)CC1` [Compound 104, 1-{4-[1-(1H-Benzotriazole-5-carbonyl)-piperidin-4-yl]-piperazin-1-yl}-3-(3,5-dichloro-4-fluoro-phenyl)-propan-1-one], the IC50 is below 10 µM.

On to `Cc1nc(-c2ccc(Cl)cc2)sc1COC(=O)N1CCN(C2CCN(C(=O)c3ccc4[nH]nnc4c3)CC2)CC1` [Compound 174, 4-[1-(1H-Benzotriazole-5-carbonyl)-piperidin-4-yl]-piperazine-1-carboxylic acid 2-(4-chloro-phenyl)-4-methyl-thiazol-5-ylmethyl ester], for which the IC50 is below 10 µM.
